The RepoRT retention time repository (doi:10.1016/j.foodchem.2021.129757)

Legend:
Conditions in all cases: stereoisomer not certain
[1] = RP, 100 × 0.5 mm, 2.7 µm, 45 °C, 0.015 mL/min, estimated dead time 0.83 min; A: water + 0.9% formic acid; B: acetonitrile + 0.9% formic acid; gradient (min/%B) 0/1 0.5/1 4/95 4.5/1 5/1
[2] = RP, 50 × 0.5 mm, 2.7 µm, 35 °C, 0.01 mL/min, estimated dead time 0.62 min; A: water + 0.1% formic acid, pH 3; B: acetonitrile + 0.1% formic acid, pH 3; gradient (min/%B) 0/5 12/95 14/95 16/5
[3] = RP, 150 × 2.1 mm, 2.6 µm, 40 °C, 0.35 mL/min, estimated dead time 0.94 min; A: water + 0.1% formic acid, pH 3; B: acetonitrile + 0.1% formic acid, pH 3; gradient (min/%B) 0/0 1/0 12.5/100 14/100 14.2/0 15/0
[4] = RP, 150 × 2.1 mm, 2.6 µm, 40 °C, 0.35 mL/min, estimated dead time 0.94 min; A: water + 0.1% formic acid, pH 3; B: acetonitrile + 0.1% formic acid, pH 3; gradient (min/%B) 0/0 1/5 7/45 8.5/80 10.5/80 11/5 12/5
[5] = RP, Phenomenex Synergi Hydro-RP, 150 × 2 mm, 4 µm, 30 °C, 0.5 mL/min, estimated dead time 0.6 min; A: water + 0.1% formic acid, pH 3; B: acetonitrile + 0.1% formic acid, pH 3; gradient (min/%B) 0/5 1/5 35/45 40/100 45/100
[6] = RP, Phenomenex Luna C18, 150 × 4.6 mm, 3 µm, 25 °C, 0.5 mL/min, estimated dead time 3.2 min; A: water + 0.1% formic acid, pH 3; B: acetonitrile + 0.1% formic acid, pH 3; gradient (min/%B) 0/0 30/30 35/40 50/80 52/80 60/0 65/0
[7] = RP, Merck LiChrospher RP-18, 250 × 4 mm, 5 µm, 35 °C, 0.3 mL/min, estimated dead time 6.7 min; A: water + 0.5% formic acid; B: acetonitrile + 0.5% formic acid; gradient (min/%B) 0/5 10/5 30/15 45/20 65/20 95/54 110/63 115/5 135/5
[8] = RP, Phenomenex Luna Omega Polar C18, 100 × 2.1 mm, 1.6 µm, 40 °C, 0.5 mL/min, estimated dead time 0.44 min; A: water + 0.1% formic acid + 10 mM ammonium formate; B: acetonitrile; gradient (min/%B) 0/5 8/20 10/100 12/100 12.1/5 14/5
[9] = RP, Waters ACQUITY UPLC HSS T3, 100 × 2.1 mm, 1.8 µm, 30 °C, 0.4 mL/min, estimated dead time 0.55 min; A: water + 0.1% formic acid, pH 3; B: acetonitrile + 0.1% formic acid, pH 3; gradient (min/%B) 0/0 2/0 15/100 22/100 22.1/0 26/0
[10] = RP, Agilent ZORBAX Eclipse XDB-C18, 100 × 2.1 mm, 1.8 µm, 50 °C, 0.4 mL/min, estimated dead time 0.55 min; A: water + 0.1% formic acid, pH 3; B: methanol + 0.1% formic acid, pH 3; gradient (min/%B) 0/2 10/100 14.5/100 14.51/2 16.5/2
[11] = RP, Waters ACQUITY UPLC BEH C18, 100 × 2.1 mm, 1.7 µm, 65 °C, 0.4 mL/min, estimated dead time 0.55 min; A: water + 0.1% formic acid, pH 3; B: 80% acetonitrile + 20% acetone + 0.1% formic acid, pH 3; gradient (min/%B) 0/0 5/100 5.5/0 6/0
[12] = RP, Waters ACQUITY UPLC BEH Shield RP18, 100 × 2.1 mm, 1.7 µm, 30 °C, 0.6 mL/min, estimated dead time 0.37 min; A: water + 0.1% formic acid, pH 3; B: acetonitrile + 0.1% formic acid, pH 3; gradient (min/%B) 0/0 2/0 7/10 22/95 22.1/0 26/0
[13] = RP, Waters ACQUITY UPLC BEH Shield RP18, 150 × 2.1 mm, 1.7 µm, 40 °C, 0.4 mL/min, estimated dead time 0.83 min; A: water + 0.1% formic acid, pH 3; B: acetonitrile + 0.1% formic acid, pH 3; gradient (min/%B) 0/0 30/50 31/100 37/100 37.1/0
[14] = RP, Agilent ZORBAX RRHD Eclipse Plus C18, 50 × 2.1 mm, 1.8 µm, 30 °C, 0.4 mL/min, estimated dead time 0.28 min; A: water + 0.1% formic acid, pH 3; B: acetonitrile + 0.1% formic acid, pH 3; gradient (min/%B) 0/1 5/10 8/25 9.1/99 10/99 12/1
[15] = RP, Agilent ZORBAX RRHD Eclipse Plus C18, 50 × 2.1 mm, 1.8 µm, 30 °C, 0.4 mL/min, estimated dead time 0.28 min; A: water + 0.1% formic acid, pH 3; B: acetonitrile + 0.1% formic acid, pH 3; gradient (min/%B) 0/1 5/10 8/25 9.1/99 10/99 12/99
[16] = RP, Agilent InfinityLab Poroshell 120 EC-C18, 100 × 3 mm, 2.7 µm, 25 °C, 0.4 mL/min, estimated dead time 1.1 min; A: water + 0.1% formic acid, pH 3; B: acetonitrile + 0.1% formic acid, pH 3; gradient (min/%B) 0/5 10/25 20/40 24/90 25/90 26/5 30/5
[17] = RP, Phenomenex Synergi Hydro-RP, 250 × 2 mm, 4 µm, 25 °C, 0.2 mL/min, estimated dead time 2.5 min; A: water + 0.1% formic acid, pH 3; B: acetonitrile + 0.1% formic acid, pH 3; gradient (min/%B) 0/0.5 7/0.5 12/12.5 25/16.3 47/35 48/65 50/65 50.1/0.5
[18] = RP, Waters Atlantis T3, 100 × 2.1 mm, 3 µm, 40 °C, 0.3 mL/min, estimated dead time 0.73 min; A: water + 0.1% trifluoroacetic acid, pH 2; B: acetonitrile + 0.1% trifluoroacetic acid, pH 2; gradient (min/%B) 0/10 1/10 6/40 7/50 8/50 14/70 16/80 20/10 25/10
[19] = Other, Phenomenex Kinetex PFP, 100 × 4.6 mm, 5 µm, 45 °C, 0.6 mL/min, estimated dead time 1.8 min; A: water + 0.1% trifluoroacetic acid, pH 2; B: methanol; gradient (min/%B) 0/40 20/72 21/40
[20] = RP, Phenomenex Luna Omega Polar C18, 100 × 2.1 mm, 1.6 µm, 40 °C, 0.5 mL/min, estimated dead time 0.44 min; A: water + 0.5% formic acid; B: acetonitrile + 0.5% formic acid; gradient (min/%B) 0/5 3/50 3.1/100 5/100 5.1/5 7/5
[21] = RP, Phenomenex Kinetex EVO C18, 100 × 2.1 mm, 2.6 µm, 40 °C, 0.4 mL/min, estimated dead time 0.55 min; A: water + 0.2% formic acid; B: acetonitrile + 0.2% formic acid; gradient (min/%B) 0/5 0.5/5 7/95 8/95 8.5/5 12/5

| SMILES | LC retention time [1] [min] | LC retention time [2] [min] | LC retention time [5] [min] | LC retention time [6] [min] | LC retention time [8] [min] | LC retention time [9] [min] | LC retention time [10] [min] | LC retention time [12] [min] | LC retention time [13] [min] | LC retention time [14] [min] | LC retention time [15] [min] | LC retention time [16] [min] | LC retention time [18] [min] | LC retention time [19] [min] | LC retention time [20] [min] | other results |
| --- | --- | --- | --- | --- | --- | --- | --- | --- | --- | --- | --- | --- | --- | --- | --- | --- |
| O=C(CCc1ccc(O)cc1)c1c(O)cc(O)cc1O [Phloretin] | 3.13 | 6 | 25.8 | 41.2 | 9.58 | 11.4 | 6.47 | 15.6 | 21.3 | 9.14 | 9.3 | 16.7 | 10 | – | – | LC retention time [3]: 7.51 min; LC retention time [4]: 7.9 min; LC retention time [7]: 94.8 min; LC retention time [11]: 2.85 min; LC retention time [17]: 50.6 min |
| O=c1c(-c2ccc(O)cc2)coc2cc(O)cc(O)c12 [Genistein] | 3.17 | 6.06 | 25.7 | 41.5 | 9.62 | 11.5 | 6.56 | 16.1 | 22.9 | – | – | 16.5 | – | 18 | 3.49 | LC retention time [3]: 7.65 min; LC retention time [4]: 8.03 min; LC retention time [11]: 2.84 min |
| O=c1c(OS(=O)(=O)O)c(-c2ccc(O)c(O)c2)oc2cc(O)cc(O)c12 [Quercetin 3-O-sulfate] | 2.82 | – | 20.2 | 46.2 | 9.25 | 10.5 | 5.84 | 19.4 | 25.5 | 7.73 | 8.12 | 12.6 | – | 14.7 | 2.93 | LC retention time [21]: 6.76 min |
| COc1cc(-c2oc3cc(O)cc(O)c3c(=O)c2O)ccc1O [Isorhamnetin] | 3.24 | 4.51 | 27.4 | 42.5 | 9.84 | 11.7 | 7.05 | 16.4 | 24 | 9.19 | 9.29 | 17.6 | – | – | 3.7 | LC retention time [7]: 98.9 min |
| CC1OC(OC2C(Oc3cc(O)c4c(c3)OC(c3ccc(O)cc3)CC4=O)OC(CO)C(O)C2O)C(O)C(O)C1O (stereo not given) [Naringin] | 2.56 | 4.65 | 17.3 | 26.7 | 8.96 | 9.46 | 5.22 | 13 | 13 | – | – | 10.6 | 7.79 | 9.02 | – | – |
| O=c1c(O)c(-c2ccc(OS(=O)(=O)O)c(O)c2)oc2cc(O)cc(O)c12 [Quercetin 4-O-sulfate] | 2.82 | – | 20.7 | 47.6 | 9.3 | 10.6 | – | 19.5 | – | – | – | 12.9 | – | 14.9 | 2.93 | – |
| CC1OC(OC2C(O)C(OCCc3ccc(O)c(O)c3)OC(CO)C2OC(=O)C=Cc2ccc(O)c(O)c2)C(O)C(O)C1O (stereo not given) [Verbascoside] | 2.44 | 4.6 | 15.8 | 23 | 8.28 | 9.05 | 4.86 | 12.6 | 12 | – | – | 10.2 | 7.34 | – | 2.49 | LC retention time [21]: 4.84 min |
